# Measured values as given in patent publication US20080287467A1, “Therapeutic Agent for Respiratory Diseases” (priority 2004, published 2008).
# Like-named read-outs stand apart in the source and are kept apart here.
# Tested on: swine bronchial smooth muscle cells
# Experiment: Patch cramp (whole-cell) measurement of membrane current and membrane potential, ATP-induced inward current
# Type: cell-based
# From the text: In the present specification, the patch cramp method is a method including allowing a glass micropipette (patch electrode) to attach tightly to cell membrane at a high resistance in giga-ohms (GΩ) or more and then measuring ion currents in conditions that a very small membrane region (patch membrane) on the top opening of the electrode is electrically isolated from other regions. In particular, the inventors measured and analyzed electric currents by the whole-cell mode including opening a hole by breaking the patch membrane to record ion current flowing through the whole cell membrane except the broken patch membrane.
# Swine bronchial smooth muscle tissue was finely chopped and incubated at 37° C. for 40 minutes, using collagenase and papain, to isolate the cells.
molecule,measurement,setting,value
"Nc1ncnc2c1ncn2[C@@H]1O[C@H](COP(=O)(O)OP(=O)(O)OP(=O)(O)O)[C@@H](O)[C@H]1O [ATP, adenosine-5′-triphosphate]",cellular membrane potential after depolarization due to ATP,"electric current fixed, depolarized from −40 mV",−20 mV
same,membrane current on ATP administration,membrane potential maintained at −40 mV,inward current passed
"Cc1nc(N=Nc2ccc(S(=O)(=O)O)cc2S(=O)(=O)O)c(COP(=O)(O)O)c(C=O)c1O [PPADS, pyridoxal phosphate-6-azophenyl-2′,4′-disulfonic acid]",suppression of the ATP-induced inward current,concentration not given,No suppression
COc1ccc(CCCOC(Cn2ccnc2)c2ccc(OC)cc2)cc1 (stereo not shown) [SKF 96365],suppression of the ATP-induced inward current,,about 50%
COc1ccc2c(c1)CC[C@@H]1[C@@H]2CC[C@]2(C)[C@@H](NCCCCCCN3C(=O)C=CC3=O)CC[C@@H]12 [U-73122],suppression of the ATP-induced inward current,"treatment with 100 μM, subsequent ATP dosing",no suppression
Cc1ccc(C(=O)Nc2ccc(S(=O)(=O)O)c3cc(S(=O)(=O)O)cc(S(=O)(=O)O)c23)cc1NC(=O)c1cccc(NC(=O)Nc2cccc(C(=O)Nc3cc(C(=O)Nc4ccc(S(=O)(=O)O)c5cc(S(=O)(=O)O)cc(S(=O)(=O)O)c45)ccc3C)c2)c1 [suramin],suppression of the ATP-induced inward current,concentration not given,No suppression
ivermectin,enhancement of the ATP-induced inward current,FIG. 2,3.5 fold
